Data set [1] has as its target T1, IDUA (Homo sapiens, UniProt P35475).
T1 sequence (P35475 28-653): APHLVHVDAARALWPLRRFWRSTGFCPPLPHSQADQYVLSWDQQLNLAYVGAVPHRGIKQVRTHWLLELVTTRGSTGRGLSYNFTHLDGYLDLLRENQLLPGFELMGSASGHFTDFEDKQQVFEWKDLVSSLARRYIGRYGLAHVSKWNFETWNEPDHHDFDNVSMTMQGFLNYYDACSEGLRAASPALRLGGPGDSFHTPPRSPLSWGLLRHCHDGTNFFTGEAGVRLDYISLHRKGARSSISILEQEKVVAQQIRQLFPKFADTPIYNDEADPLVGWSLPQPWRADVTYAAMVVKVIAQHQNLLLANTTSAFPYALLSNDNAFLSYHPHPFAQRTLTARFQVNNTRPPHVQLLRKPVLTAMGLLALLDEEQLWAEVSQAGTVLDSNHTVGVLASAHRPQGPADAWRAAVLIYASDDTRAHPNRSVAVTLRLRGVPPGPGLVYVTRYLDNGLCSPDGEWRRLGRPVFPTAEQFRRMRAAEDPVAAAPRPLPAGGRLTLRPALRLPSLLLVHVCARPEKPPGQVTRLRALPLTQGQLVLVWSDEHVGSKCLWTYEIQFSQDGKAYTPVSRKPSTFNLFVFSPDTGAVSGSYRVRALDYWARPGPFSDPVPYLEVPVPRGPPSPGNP
In words: Denaturation prevention (isothermal denaturation) assay with SYPRO Orange. The class given is binding. Further details: purchased R&D Systems. The following applies: 30 μM compound, pH 7.0, 37 °C. How it is done: The capacity of the compounds to stabilize IDUA in neutral pH buffer was assessed using the denaturation prevention assay. Briefly, rhIDUA (obtained from the Institute of Biotechnology and Biomedicine in the UAB, Bellaterra, Spain) was combined to a final concentration of 1 μM with 5X SYPRO Orange and 30 μM of the corresponding compound in a final reaction volume of 25 μL in 100 mM Hepes, 20 mM MgCl2, pH 7 buffer, or 25 mM NaAc, 150 mM NaCl, pH 5.2. Reactions were incubated at 37 °C, and SYPRO Orange fluorescence intensity was monitored at the indicated time points using Glomax® Discover microplate reader (Promega, Madison, WI, USA). Two independent experiments in triplicate at one concentration (30μM) of compound #18 (GT-01803) were performed for denaturation prevention assays.

Data set [2] can be described thus: Plasma pharmacokinetics of GT-01803 in mice. The format is in vivo, male C57BL/6 mice. To be noted: male, C57BL/6, mouse. Here is the method:
The in vivo pharmacokinetic (PK) profile of GT-01803 in plasma was assessed in male C57BL/6 mice after single intravenous (i.v.) and oral gavage administration (p.o.) of 2 mg/kg and 10 mg/Kg, respectively. The plasma PK evaluation was performed by Sai Life Sciences Limited (Pune, India) in accordance with guidelines of the Institutional Animal Ethics Committee (IAEC). Eighteen male mice were divided into Group 1 (i.v.: 2 mg/kg) or Group 2 (p.o.: 10 mg/kg). Animals in Group 1 and Group 2 were administered intravenously and orally with GT-01803 solution formulation in 5% N-methyl-2-pyrrolidone (NMP), 5% Solutol HS-15 and 90% saline solution at 2 and 10 mg/kg doses, respectively.
Blood samples were collected under light isoflurane anesthesia from retro-orbital plexus such that samples were obtained at 0.08, 0.25, 0.5, 1, 2, 3, 4, 6 and 8 hr. (i.v.) and Pre-dose, 0.25, 0.5, 1, 2, 3, 4, 6 and 8 hr (p.o.). At each time point, blood samples were collected from three mice. Immediately after collection, plasma was harvested by centrifugation and stored at -70 °C until analysis. All samples were processed by protein precipitation using acetonitrile and analyzed with an LC/MS/MS method suitable for the purpose (LLOQ = 1.00 ng/mL).
PK parameters were calculated using the non-compartmental analysis tool of Phoenix WinNonlin (Version 7.0). Maximum concentration (Cmax) and time to reach maximum concentration (Tmax) were the observed values. The areas under the concentration time curve (AUClast and AUCinf) […] were calculated by linear trapezoidal rule. The terminal elimination rate constant, ke, was determined by regression analysis of the linear terminal portion of the log plasma concentration-time curve. The terminal half-life (T1/2) was estimated as follows 0.693/ke; CLi.v. = Dose/AUCinf; Vss = MRT X CLi.v.; %F = [(Mean AUCp.o. × Dosei.v.) / (Mean AUCi.v. × Dosep.o.)] × 100.

Data set [3] has as its target T1, IDUA. The data set is described as follows: Differential scanning fluorimetry (DSF) thermal shift. The format is binding. Further details: purchased R&D Systems. Here is the method: The capacity of the compounds to stabilise IDUA was assessed by DSF. The thermal denaturation of purified human native enzyme was monitored in the presence of the extrinsic fluorescent probe SYPRO® Orange (Thermo Fisher Scientific, Waltham, MA, USA), which binds to hydrophobic parts of proteins that become exposed as the protein unfolds. […] Reactions containing 12.5 μL of 1.5 μM rhIDUA protein (purchased from R&D Systems) in 100 mM Hepes, 20 mM MgCl2, pH 7, to a final protein concentration of 0.75 μM with SYPRO Orange 10X, and 12.5 μL of the different compound solutions dissolved in 100% DMSO and diluted into the protein buffer to achieve final concentrations of 1% DMSO. The intensity of SYPRO Orange fluorescence after a systematic increase in temperature was monitored in the Roche LightCycler® 480 II device (Roche Diagnostics). The significance of the melting temperature (Tm) shifts was evaluated based on two criteria: absolute ΔTm shift > 0.5 °C (instrumental criterion) and absolute ΔTm standard deviation ≤ 0.2 (statistical criterion). The thermal shift dose response was performed at various increasing concentrations (from 0.04 to 90 μM) of compound #18 (GT-01803) with rhIDUA (obtained from the Institute of Biotechnology and Biomedicine at the Autonomous University of Barcelona (UAB), Bellaterra, Spain).

The values that follow come from publication PMC11104609, “Discovery of allosteric regulators with clinical potential to stabilize alpha-L-iduronidase in mucopolysaccharidosis type I” (PLOS ONE, 2024).

The AUC(0-inf) is the area under the concentration-time curve extrapolated to infinity. Read a high AUC(0-inf) as high exposure. For orientation: AUC(0-t) means the area under the concentration-time curve up to a stated or last time point. Low values mean low exposure, high ones high exposure. Broadly, the clearance is a measure of how efficiently the substance is removed, as volume per time. The low end stands for a low capacity for elimination, the high end for a high capacity for elimination. In general, half-life refers to how long it takes for the measured level to halve. Higher therefore signals slow loss. The bioavailability is the share of a dose that reaches the circulation, judged against a reference dose that is usually intravenous. In general, Cmax refers to the highest concentration seen after dosing. As usually defined, the Tmax is the time from dosing to the highest level.

Take `CCN(CC(=O)Nc1c(Cl)cccc1Cl)Cc1nc2ccsc2c(=O)[nH]1` [GT-01803]: the “pH-induced denaturation of rhIDUA” value at IDUA [1] was “slowed down”. In data set [2] (iv, 2 mg/kg), this compound gave a total exposure AUC(0-inf) of 13600 ng·h/mL, an AUC(0-t) of 13300 ng·h/mL, a clearance of 2.45 mL/min/kg and a half-life of 3.54 h. Further, in data set [2] (iv, 2 mg/kg, read-out: C0 (back extrapolated conc.)), the C0 is 33500 ng/mL. In data set [2] (iv, 2 mg/kg, read-out: Vss), the Vd was 0.13 L/kg. Further, in data set [2] (oral, p.o. 10 mg/kg vs i.v. 2 mg/kg, AUClast considered, read-out: %F (oral bioavailability)), the bioavailability is 50%. In addition, in data set [2] (po, 10 mg/kg), the total exposure AUC(0-inf) was 33200 ng·h/mL, the AUC(0-t) was 33000 ng·h/mL, the highest concentration (Cmax) stood at 33900 ng/mL and the time to peak (Tmax) came to 0.25 h. Moreover, the “rhIDUA stabilization by DSF (ΔTm)” value on IDUA [3] (30 μM, compounds #1 to #21) was “highest rhIDUA stabilization”. The “increase of rhIDUA melting temperature” value at IDUA [3] (dose response 0.04 to 90 μM, neutral pH) is recorded as 4 ºC.
